Data from patent US20060167050A1 (POOGER PROPERTIES LIMITED, priority 2002, published 2006).

Experiments:
[1] = test system: ADHD patients with insomnia disorders; assay: sleep induction by melatonin in ADHD patients with insomnia disorders first treated with methyl phenidate; assay type: in vivo, human; conditions: pure melatonin 2.5 mg
[2] = test system: patients who had been previously treated with methyl phenidate; conditions: melatonin 3 mg; cited from earlier work
[3] = test system: children with delayed sleep phase syndrome; conditions: 2.5 to 7.5 mg PO once daily before expected bedtime; cited from earlier work
[4] = test system: patients with major depressive disorder; conditions: cited from earlier work
[5] = test system: ADHD; conditions: in vivo; cited from earlier work
[6] = test system: dopamine levels; conditions: normal therapeutic doses; healthy, adult men; cited from earlier work
[7] = test system: ADHD patients; conditions: versus 54% of ADHD cases with concomitant insomnia; cited from earlier work

COc1ccc2[nH]cc(CCNC(C)=O)c2c1 [melatonin, N-acetyl-5-methoxytryptamine]
activity as a sleep-inducing agent [1]: active as a sleep-inducing agent
time for insomnia [2]: significant reduction in the time for insomnia
average onset of sleep after melatonin administration [3]: ≤ 1 h
sleep quality scores ([4]; concomitant slow-release melatonin at 9 pm versus fluoxetine alone, 4 weeks): significantly improved sleep quality scores
need for additional sleep medications ([4]; concomitant slow-release melatonin with fluoxetine): avoided the need for additional sleep medications

Clc1cccc(Cl)c1N=C1NCCN1 [clonidine]
efficacy in treating ADHD [5]: effective in treating ADHD

COC(=O)C(c1ccccc1)C1CCCCN1 (centres unmarked) [methylphenidate]
dopamine levels (PET) [6]: increased their dopamine levels
problems relating to insomnia in treated ADHD patients [7]: 64%
